Assay results: patent publication US5063208A, “Peptidyl aminodiol renin inhibitors” (Abbott Laboratories, priority 1990, dated 1991)

Target: T1, human renal renin (Homo sapiens, UniProt P00797)
T1 construct: human renal renin, free from acid proteolytic activity; from tissue
T1 sequence (P00797 67-406): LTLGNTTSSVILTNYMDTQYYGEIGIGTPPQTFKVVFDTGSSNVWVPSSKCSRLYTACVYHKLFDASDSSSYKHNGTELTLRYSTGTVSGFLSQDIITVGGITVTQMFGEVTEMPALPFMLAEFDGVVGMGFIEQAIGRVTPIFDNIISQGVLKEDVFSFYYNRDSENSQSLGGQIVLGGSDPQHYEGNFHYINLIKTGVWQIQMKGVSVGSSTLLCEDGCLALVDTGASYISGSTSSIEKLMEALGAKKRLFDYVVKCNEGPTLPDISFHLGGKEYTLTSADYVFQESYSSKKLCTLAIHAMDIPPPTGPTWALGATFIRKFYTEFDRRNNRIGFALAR
Test: Inhibition of human renal renin in vitro (angiotensin I formed measured by radioimmunoassay)
Type: biochemical
Conditions: human renal renin free from acid proteolytic activity, renin substrate human angiotensinogen, 37 degrees C, pH 6.0; read-out: IC50 (molar concentration required to cause 50% inhibition)
Procedure: The compounds of the invention are also useful for treating congestive heart failure in a mammal. […] At the end of the incubation, the amount of angiotensin I formed is measured by radioimmunoassay and the molar concentration required to cause 50% inhibition, expressed as the IC50, is calculated.

Row | Compound | IC50 [pM]
1 | CC(C)C[C@H](O)[C@H](O)[C@H](CC1CCCCC1)NC(=O)[C@H](Cn1ccnc1)NC(=O)[C@@H](CC(=O)N(C)CCc1ccccn1)Cc1ccccc1 [Example 141, (2R)-2-Benzyl-3-[(2-pyridin-2-ylethyl)methylaminocarbonyl]propionyl-L-(1-imidazolyl)Ala Amide of (2S,3R,4S)-2-Amino-1-cyclohexyl-3,4-dihydroxy-6-methylheptane] | 880
2 | CC(C)C[C@H](O)[C@H](O)[C@H](CC1CCCCC1)NC(=O)[C@H](Cc1cscn1)NC(=O)[C@H](Cc1ccccc1)Cn1ccnc1 [Example 102, (2R)-2-Benzyl-3-imidazol-1-ylpropionyl-L-(4-thiazolyl)Ala Amide of (2S,3R,4S)-2-Amino-1-cyclohexyl-3,4-dihydroxy-6-methylheptane] | 690
3 | CCCC[C@H](NC(=O)C(Cc1ccccc1)CS(=O)(=O)C1CN(C)C1)C(=O)N[C@@H](CC1CCCCC1)[C@@H](O)[C@@H](O)CC(C)C (mixture of isomers) [Example 110, (2RS)-2-Benzyl-3-(1-methylazetidin-3-ylsulfonyl)propionyl-Nle Amide of (2S,3R,4S)-2-Amino-1-cyclohexyl-3,4-dihydroxy-6-methylheptane] | 2300
4 | CCCC[C@H](NC(=O)[C@@H](CC(=O)N(C)CCn1cccn1)Cc1ccccc1)C(=O)N[C@@H](CC1CCCCC1)[C@@H](O)[C@@H](O)CC(C)C [Example 121, (2R)-2-Benzyl-3-[(2-pyrazol-1-ylethyl)methylaminocarbonyl]propionyl-Nle Amide of (2S,3R,4S)-2-Amino-1-cyclohexyl-3,4-dihydroxy-6-methylheptane] | 330
5 | CC(C)C[C@H](O)[C@H](O)[C@H](CC1CCCCC1)NC(=O)[C@H](Cc1cscn1)NC(=O)[C@H](Cc1ccccc1)N1CCOCC1 [Example 113, (2S)-2-(4-Morpholinyl)-3-phenylpropionyl-L-(4-thiazolyl)Ala Amide of (2S,3R,4S)-2-Amino-1-cyclohexyl-3,4-dihydroxy-6-methylheptane] | 150
6 | CC(C)C[C@H](O)[C@H](O)[C@H](CC1CCCCC1)NC(=O)[C@H](Cc1cscn1)NC(=O)[C@H](Cc1ccccc1)Cc1csc(N(C)C)n1 [Example 104, (2R)-2-Benzyl-3-(2-dimethylaminothiazol-4-yl)propionyl-L-(4-thiazolyl)Ala Amide of (2S,3R,4S)-2-Amino-1-cyclohexyl-3,4-dihydroxy-6-methylheptane] | 430
7 | CC(C)C[C@H](O)[C@H](O)[C@H](CC1CCCCC1)NC(=O)[C@H](Cc1cscn1)NC(=O)[C@@H](CC(=O)C[S+]([O-])C(C)(C)C)Cc1ccccc1 (stereo partly drawn) [Example 99, (2R)-2-Benzyl-5-tert-butylsulfinyl-4-oxopentanoyl-L-(4-thiazolyl)Ala Amide of (2S,3R,4S)-2-Amino-1-cyclohexyl-3,4-dihydroxy-6-methylheptane] | 910
8 | CC(C)C[C@H](O)[C@H](O)[C@H](CC1CCCCC1)NC(=O)[C@H](Cn1cccn1)NC(=O)[C@@H](CC(=O)N(C)CCn1ccnc1)Cc1ccccc1 [Example 120, (2R)-2-Benzyl-3-[(2-imidazol-1-ylethyl)methylaminocarbonyl]propionyl-L-(1-pyrazolyl)Ala Amide of (2S,3R,4S)-2-Amino-1-cyclohexyl-3,4-dihydroxy-6-methylheptane] | 220
9 | CC(C)C[C@H](O)[C@H](O)[C@H](CC1CCCCC1)NC(=O)[C@H](Cc1cscn1)NC(=O)[C@@H](CC1=CSC2=NCCN12)Cc1ccccc1 [Example 105, (2R)-2-Benzyl-3-(5,6-dihydroimidazo[2,1-b]thiazol-3-yl)propionyl-L-(4-thiazolyl)Ala Amide of (2S,3R,4S)-2-Amino-1-cyclohexyl-3,4-dihydroxy-6-methylheptane] | 1100
